Measured values as given in ChEMBL document CHEMBL1201862, “PubChem BioAssay data set” (2004).
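Five concentrations, 48 hours, 96-well plates. GI50 is the concentration that inhibits growth by half.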 Calls of active or inactive are those of the source. Rule as the data show it: active = GI50 up to about 1.1 µM and inactive = higher.

How the values were obtained:
Assay in all cases: NCI tumour cell line growth inhibition, 48 h
OVCAR-4 = system: OVCAR-4
NCI-H460 = system: NCI-H460
CCRF-CEM = system: CCRF-CEM
U-251 = system: U-251
A549 = system: A549
ACHN = system: ACHN
EKVX = system: EKVX
RXF 393 = system: RXF 393
NCI-H522 = system: NCI-H522
UACC-257 = system: UACC-257
OVCAR-8 = system: OVCAR-8
HOP-92 = system: HOP-92
M14 = system: M14
Malme-3M = system: Malme-3M
SNB-19 = system: SNB-19
LOX IMVI = system: LOX IMVI
HCT-116 = system: HCT-116
SW-620 = system: SW-620
TK-10 = system: TK-10
SF-268 = system: SF-268

SMILES | GI50 (OVCAR-4) | GI50 (NCI-H460) | GI50 (CCRF-CEM) | GI50 (U-251) | GI50 (A549) | GI50 (ACHN) | GI50 (EKVX) | GI50 (RXF 393) | GI50 (NCI-H522) | GI50 (UACC-257) | GI50 (OVCAR-8) | GI50 (HOP-92) | GI50 (M14) | GI50 (Malme-3M) | GI50 (SNB-19) | GI50 (LOX IMVI) | GI50 (HCT-116) | GI50 (SW-620) | GI50 (TK-10) | GI50 (SF-268)
CSc1nc2c(c(=O)[nH]1)N=C(c1ccccc1)CC(c1ccccc1)N2 (centres undefined) | 30.3 µM (inactive) | 13.4 µM (inactive) | 26.1 µM (inactive) | 34 µM (inactive) | 32.1 µM (inactive) | 25.6 µM (inactive) | 32.1 µM (inactive) | 34.7 µM (inactive) | 19.2 µM (inactive) | 56.5 µM (inactive) | 28 µM (inactive) | 41.5 µM (inactive) | 32.2 µM (inactive) | 23.4 µM (inactive) | 39.1 µM (inactive) | 24.8 µM (inactive) | 29.6 µM (inactive) | 50.8 µM (inactive) | – | –
Cn1c(=O)c2c(nc(C[N+]3([O-])CCOCC3)n2C)n(C)c1=O | – | > 100 µM (inactive) | > 100 µM (inactive) | > 100 µM (inactive) | > 100 µM (inactive) | > 100 µM (inactive) | > 100 µM (inactive) | > 100 µM (inactive) | > 100 µM (inactive) | > 100 µM (inactive) | > 100 µM (inactive) | > 100 µM (inactive) | > 100 µM (inactive) | > 100 µM (inactive) | > 100 µM (inactive) | > 100 µM (inactive) | 7.98 µM (inactive) | > 100 µM (inactive) | > 100 µM (inactive) | > 100 µM (inactive)
c1csc(-c2sc(-c3ccsc3)cc2Cc2ccsc2)c1 | > 10 µM (inactive) | – | > 10 µM (inactive) | – | > 10 µM (inactive) | – | > 10 µM (inactive) | > 10 µM (inactive) | – | > 10 µM (inactive) | > 10 µM (inactive) | > 10 µM (inactive) | > 10 µM (inactive) | > 10 µM (inactive) | – | > 10 µM (inactive) | – | > 10 µM (inactive) | > 10 µM (inactive) | > 10 µM (inactive)
CCOc1ccccc1-c1nc2c(s1)C(=O)c1ccccc1C2=O | 9.68 µM (inactive) | 18.7 µM (inactive) | – | 14.6 µM (inactive) | 17.1 µM (inactive) | 14.9 µM (inactive) | 17.2 µM (inactive) | 16 µM (inactive) | 11.8 µM (inactive) | 12.9 µM (inactive) | – | 12 µM (inactive) | 15.7 µM (inactive) | 3.68 µM (inactive) | 25.8 µM (inactive) | 4.37 µM (inactive) | 15.2 µM (inactive) | 8 µM (inactive) | 19.3 µM (inactive) | 12.6 µM (inactive)
NC(=O)c1cn(Cc2ccccc2)c(=O)n1Cc1ccccc1 | > 100 µM (inactive) | > 100 µM (inactive) | > 100 µM (inactive) | > 100 µM (inactive) | > 100 µM (inactive) | > 100 µM (inactive) | > 100 µM (inactive) | > 100 µM (inactive) | > 100 µM (inactive) | > 100 µM (inactive) | > 100 µM (inactive) | > 100 µM (inactive) | > 100 µM (inactive) | – | > 100 µM (inactive) | > 100 µM (inactive) | > 100 µM (inactive) | > 100 µM (inactive) | > 100 µM (inactive) | > 100 µM (inactive)
O=[N+]([O-])c1cnc(N(CCO)CCO)s1 | > 100 µM (inactive) | > 100 µM (inactive) | 79.6 µM (inactive) | > 100 µM (inactive) | > 100 µM (inactive) | > 100 µM (inactive) | > 100 µM (inactive) | > 100 µM (inactive) | > 100 µM (inactive) | > 100 µM (inactive) | > 100 µM (inactive) | > 100 µM (inactive) | > 100 µM (inactive) | > 100 µM (inactive) | > 100 µM (inactive) | > 100 µM (inactive) | > 100 µM (inactive) | > 100 µM (inactive) | – | > 100 µM (inactive)
CC(=O)O[C@H]1[C@@H](OC2CCCC2(c2ccccc2)c2ccccc2)O[N+]([O-])=C[C@@H]1c1ccccc1 (some centres undefined) | 6.46 µM (inactive) | 17.9 µM (inactive) | 3.19 µM (inactive) | 7.83 µM (inactive) | 9.33 µM (inactive) | 5.07 µM (inactive) | 13.4 µM (inactive) | 2.82 µM (inactive) | 1.26 µM (inactive) | 9.25 µM (inactive) | 2.47 µM (inactive) | 5.92 µM (inactive) | 6.18 µM (inactive) | – | 15.6 µM (inactive) | 2.1 µM (inactive) | 3.24 µM (inactive) | 3.14 µM (inactive) | 9.71 µM (inactive) | 5.01 µM (inactive)
Cc1ccc(-c2cs/c(=N\c3ccccc3)n2NC(=O)c2ccncc2)cc1 | 36.9 µM (inactive) | 36.3 µM (inactive) | 36.6 µM (inactive) | 19.1 µM (inactive) | 31.8 µM (inactive) | 35.3 µM (inactive) | 37.3 µM (inactive) | 35.2 µM (inactive) | – | 37.3 µM (inactive) | 25.8 µM (inactive) | 88.5 µM (inactive) | 33 µM (inactive) | 43.3 µM (inactive) | 46.8 µM (inactive) | 34.2 µM (inactive) | 31.8 µM (inactive) | 35.8 µM (inactive) | > 54.7 µM (inactive) | 42.1 µM (inactive)
O=C(NN=C1CCN(Cc2ccccc2)CC1)C(O)(c1ccccc1)c1ccccc1 | > 100 µM (inactive) | – | > 100 µM (inactive) | > 100 µM (inactive) | > 100 µM (inactive) | – | > 100 µM (inactive) | > 100 µM (inactive) | – | > 100 µM (inactive) | > 100 µM (inactive) | > 100 µM (inactive) | > 100 µM (inactive) | > 100 µM (inactive) | > 100 µM (inactive) | > 100 µM (inactive) | > 100 µM (inactive) | > 100 µM (inactive) | > 100 µM (inactive) | > 100 µM (inactive)
Cc1cc(C)c2c(c1)CN1CN2Cc2cc(C)cc(C)c21 | 18.3 µM (inactive) | 15.9 µM (inactive) | 24.6 µM (inactive) | 17.5 µM (inactive) | 27.2 µM (inactive) | 18 µM (inactive) | 16.9 µM (inactive) | 6.68 µM (inactive) | 29 µM (inactive) | – | 17.8 µM (inactive) | > 10 µM (inactive) | 18.2 µM (inactive) | – | < 0.01 µM (active) | 17 µM (inactive) | 19.4 µM (inactive) | 31.5 µM (inactive) | 19 µM (inactive) | 31.6 µM (inactive)
C#CCOC(=O)C(N)CS (centres undefined) | – | – | > 100 µM (inactive) | > 100 µM (inactive) | > 100 µM (inactive) | > 100 µM (inactive) | > 100 µM (inactive) | > 100 µM (inactive) | > 100 µM (inactive) | > 100 µM (inactive) | > 100 µM (inactive) | > 100 µM (inactive) | > 100 µM (inactive) | > 100 µM (inactive) | – | > 100 µM (inactive) | > 100 µM (inactive) | > 100 µM (inactive) | > 100 µM (inactive) | > 100 µM (inactive)
CCSC1=N/C(=C/c2ccccc2O)C(=O)N1 | – | > 100 µM (inactive) | > 100 µM (inactive) | 38.7 µM (inactive) | > 100 µM (inactive) | 39.2 µM (inactive) | > 100 µM (inactive) | 26.4 µM (inactive) | > 100 µM (inactive) | > 100 µM (inactive) | 41.9 µM (inactive) | 89.1 µM (inactive) | > 100 µM (inactive) | > 100 µM (inactive) | > 100 µM (inactive) | 52 µM (inactive) | > 100 µM (inactive) | > 100 µM (inactive) | – | 83.2 µM (inactive)
O=C(OCc1ccccc1)c1ccccc1-c1c2ccc(=O)cc-2oc2cc(OCc3ccccc3)ccc12 | 13.5 µM (inactive) | 15.7 µM (inactive) | 3.61 µM (inactive) | 5.32 µM (inactive) | 6.7 µM (inactive) | 6.93 µM (inactive) | 6.61 µM (inactive) | 14.4 µM (inactive) | – | 8.95 µM (inactive) | 12.1 µM (inactive) | 3.56 µM (inactive) | 15.8 µM (inactive) | 12.1 µM (inactive) | 35.1 µM (inactive) | 6.43 µM (inactive) | 9.46 µM (inactive) | 12.1 µM (inactive) | – | 14.1 µM (inactive)
CN(C)CCCCN1CCc2c(n(C)c3ccccc23)C1=O | > 86.7 µM (inactive) | – | 67.9 µM (inactive) | – | 64.7 µM (inactive) | > 77.1 µM (inactive) | 51.5 µM (inactive) | 31.5 µM (inactive) | 55.3 µM (inactive) | 17.2 µM (inactive) | > 83.4 µM (inactive) | 32 µM (inactive) | 18.5 µM (inactive) | 21.7 µM (inactive) | > 76.9 µM (inactive) | 25.9 µM (inactive) | 40.3 µM (inactive) | 44.4 µM (inactive) | – | 48.1 µM (inactive)
O=C(O)c1ccc(Nc2nc3nn(Cc4ccccc4)cc3c(=O)s2)cc1 | – | > 100 µM (inactive) | > 100 µM (inactive) | > 100 µM (inactive) | > 100 µM (inactive) | > 100 µM (inactive) | > 100 µM (inactive) | > 100 µM (inactive) | > 100 µM (inactive) | > 100 µM (inactive) | > 100 µM (inactive) | > 100 µM (inactive) | > 100 µM (inactive) | > 100 µM (inactive) | > 100 µM (inactive) | > 100 µM (inactive) | > 100 µM (inactive) | > 100 µM (inactive) | > 100 µM (inactive) | > 100 µM (inactive)
